Reference: patent US8912227B1, “Bicyclic pyrrole derivatives useful as agonists of GPR120” (Janssen Pharmaceutica NV, priority 2014, dated 2014)

Legend:
Type in all cases: cell-based
[1] = molecular target: T1, long form of human GPR120 (Homo sapiens, UniProt Q5NUL3); assay: Human GPR120 DiscoveRx PathHunter β-Arrestin assay, Procedure β-arrestin A; conditions: PathHunter CHO-K1 GPR120 β-Arrestin cell line, 3000 cells per well
T1 construct: host or cells: PathHunter CHO-K1 GPR120 β-Arrestin Cell Line
Text: (§1) The binding of an agonist (medium/long chain fatty acids or small molecule agonists) to the G-protein-coupled receptor GPR120 activates phospholipase C, leading to release of intracellular Ca^+2 through the generation of inositol 1,4,5-trisphosphate (InsP3 or IP3). GPR120 activation can also trigger intracellular signaling via recruitment of β-Arrestin. In the present method, agonist-induced activation of the human GPR120 receptor is monitored through the use of PathHunter CHO-K1 GPR120 β-Arrestin Cell Line engineered by DiscoveRx, as detailed below. The cell lines are designed to co-express both the ProLink/Enzyme Donor (PK)-tagged GPCR and the Enzyme […] (EA)-tagged Beta-Arrestin fusion proteins. Upon GPR120 receptor stimulation/activation, the EA-tagged β-Arrestin portion is translocated to the tagged receptor, where the two enzyme fragments are brought within close proximity. Under these conditions, these fragments can interact and form an active Beta-gal enzyme complex through Enzyme Fragment Complementation (EFC). This active Beta-gal complex can enzymatically hydrolyse the substrate to produce a detectable light signal; therefore, activation as a function of agonist concentration can be expressed as an EC50 value to determine relative compound activities. This in vitro assay therefore serves to assess compound agonist activity of the GPR120.
In Procedure β-arrestin A, the cell used were PathHunter CHO-K1 GPR120 β-Arrestin Cell Line, expressing the long form of human GPR120 (Genbank accession number NM_181745), with 3000 cells per well.
(§2) The selected CHO-K1 GPR120 β-Arrestin cells were cultured in Ham's F12 media supplemented with 10% fetal bovine serum (FBS), 1% Glutamine, 1×p/s, 800 μg/ml G418 and 300 μg/ml Hygromycin B (for selection). Cell stocks were maintained and grown in a sub-confluent state using standard cell culture procedures. The day before the experiment, the cells were harvested with non-enzymatic cell dissociation buffer and re-suspended in complete growth media at the desired concentration. A Corning 384-plate was then seeded with the proper number of cells in a volume of 25 μL, per well. The seeded plates were incubated overnight at 37° C.
(§3) On the day of the experiment, the Assay Buffer containing (a) HBSS with Ca^++ and Mg^++, (b) 20 mM HEPES, and (c) 0.1% BSA stabilizer (pH 7.4) was prepared. The growth medium was gently removed from the cell plates and 20 μL of Assay Buffer added to each well. The plate was then incubated at 37° C. for 60 mins. Test compounds were serially diluted in Assay Buffer to desired concentrations (more particularly, to one or more of the following μM concentrations: 25 μM, 12.5 μM, 6.25 μM, 3.125 μM, 1.562 μM, 0.781 μM, 0.391 μM, 0.195 μM, 0.098 μM, 0.049 μM, 0.024 μM, 0.012 μM). Five μl of compound dilution was then added to each well and the plate incubated at 37° C. for 90 mins. The detection reagents were prepared according to the manufacture's instruction. Twelve μL of the detection reagents were added to each well and the plate incubated at room temperature for 60 mins.
(§4) The plates were read on an EnVision instrument, using Protocol name: Luminescence, Plate type: 384 Costar, Measurement height: 3 mm, Measurement time: 1 s, Aperture: 384 Plate aperture. The % activity relative to the positive control was calculated using the following equation:
(§5) The % Activity values were plotted versus the concentration of test compound and fitted to a sigmoidal dose-response curve with a Hill slope=1 (fixed value) using nonlinear regression with GraphPad Prism 5.0 to calculate the EC50 values. The Fitting Equation was: Y=Bottom+(Top−Bottom)/(1+10^((LogEC50−X)*HillSlope)), where X is the log of the concentration and Y is the response.

[2] = molecular target: T2, Human GPR120 short form (Homo sapiens, UniProt Q5NUL3); assay: Human GPR120 calcium flux assay, Procedure Calcium A; conditions: HEK-293 cells expressing human GPR120 short form, 2500 cells/well, FLIPR
T2 construct: expressed in transfected cells
T2 sequence (Q5NUL3 1-361): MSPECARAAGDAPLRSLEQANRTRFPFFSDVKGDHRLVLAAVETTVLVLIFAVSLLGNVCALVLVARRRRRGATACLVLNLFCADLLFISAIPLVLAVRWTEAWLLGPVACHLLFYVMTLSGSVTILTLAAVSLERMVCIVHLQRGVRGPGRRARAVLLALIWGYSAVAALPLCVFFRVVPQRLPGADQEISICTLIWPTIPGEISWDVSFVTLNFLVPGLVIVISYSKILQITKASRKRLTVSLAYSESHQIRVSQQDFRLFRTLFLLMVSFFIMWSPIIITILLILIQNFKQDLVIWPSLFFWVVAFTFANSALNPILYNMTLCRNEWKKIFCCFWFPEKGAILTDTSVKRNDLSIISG
Outline: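 HEK293 cells stably expressing the human GPR120 short splice variant (NM_001195755.1) were seeded at 2500 cells/well, serum-starved 1 h and loaded with Fluo-4 NW plus probenecid. Compounds (100–0.012 μM solutions, 0.2% final DMSO) were added, and FLIPR calcium flux was read for 300 s. EC50 came from a variable-slope fit (Hill <2) of Fmax−Fmin.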

[3] = molecular target: T2, Human GPR120 short form; assay: Human GPR120 calcium flux assay, Procedure Calcium B; conditions: HEK-293 cells expressing human GPR120 short form, 4200 cells/well, FLIPR
[4] = molecular target: T3, short form of the GPR120 receptor (Homo sapiens, UniProt Q5NUL3); assay: Human GPR120 DiscoveRx PathHunter β-Arrestin assay, Procedure β-arrestin B; conditions: PathHunter CHO-K1 GPR120S β-Arrestin cell line, 5000 cells/well
T3 construct: host or cells: PathHunter CHO-K1 GPR120S β-Arrestin Cell Line
Text: as §1
In Procedure β-arrestin B the cells used were PathHunter CHO-K1 GPR120S β-Arrestin Cell Line, expressing the short form of the GPR120 receptor (Accession #NM_181745), with 5000 cells/well.
as §2, §3, §4, §5

T3 sequence (P32121 whole entry partner, one chain of several): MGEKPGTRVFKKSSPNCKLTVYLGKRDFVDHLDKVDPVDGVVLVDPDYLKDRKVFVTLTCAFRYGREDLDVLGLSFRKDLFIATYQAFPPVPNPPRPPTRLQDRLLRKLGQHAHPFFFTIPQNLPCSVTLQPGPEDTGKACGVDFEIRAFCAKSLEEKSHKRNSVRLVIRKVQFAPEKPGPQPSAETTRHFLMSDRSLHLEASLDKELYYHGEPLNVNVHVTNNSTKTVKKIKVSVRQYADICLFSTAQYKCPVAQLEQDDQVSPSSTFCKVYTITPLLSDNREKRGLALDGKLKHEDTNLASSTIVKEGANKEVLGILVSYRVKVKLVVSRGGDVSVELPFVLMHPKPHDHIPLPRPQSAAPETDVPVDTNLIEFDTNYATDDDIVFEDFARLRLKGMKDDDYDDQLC
T1 sequence (Q5NUL3 1-377 isoform Q5NUL3-1): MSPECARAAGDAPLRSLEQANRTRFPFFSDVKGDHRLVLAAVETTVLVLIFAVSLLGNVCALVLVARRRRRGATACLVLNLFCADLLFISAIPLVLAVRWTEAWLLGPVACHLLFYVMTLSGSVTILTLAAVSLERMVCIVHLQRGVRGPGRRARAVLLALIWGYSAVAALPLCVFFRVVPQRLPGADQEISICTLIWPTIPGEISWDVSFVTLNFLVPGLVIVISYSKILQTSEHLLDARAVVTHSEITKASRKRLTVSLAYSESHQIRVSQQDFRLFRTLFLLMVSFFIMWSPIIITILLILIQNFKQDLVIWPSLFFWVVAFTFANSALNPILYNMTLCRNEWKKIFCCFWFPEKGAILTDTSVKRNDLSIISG
T1 sequence (P32121 whole entry partner): as the sequence (P32121 whole entry partner, one chain of several) above

Compound	EC50 [1] [nM]	EC50 [2] [nM]	EC50 [3] [nM]	EC50 [4] [nM]
CCc1ccc(-n2ccc(C(F)(F)F)c2COc2c(F)cc(CCC(=O)O)cc2F)cc1 [Compound 32, 3-(4-[[1-(4-ethylphenyl)-3-(trifluoromethyl)-1H-pyrrol-2-yl]methoxy]-3,5-difluorophenyl)propanoic acid]	357	402	117	–
CCc1ccc(-n2ccc(C(F)(F)F)c2COc2ccc(CCC(=O)O)c(C)c2C)cc1 [Compound 36, 3-(4-[[1-(4-ethylphenyl)-3-(trifluoromethyl)-1H-pyrrol-2-yl]methoxy]-2,3-dimethylphenyl)propanoic acid]	120	444	145	–
O=C(O)CCc1cc(F)c(OCc2c(C(F)(F)F)ccn2-c2ccccc2)c(F)c1 [Compound 38, 3-(3,5-difluoro-4-((1-phenyl-3-(trifluoromethyl)-1H-pyrrol-2-yl)methoxy)phenyl)propanoic acid]	678	450	101	–
Cc1ccc(-n2ccc(C(F)(F)F)c2COc2c(F)cc(CCC(=O)O)cc2F)cn1 [Compound 49, 3-(3,5-Difluoro-4-{[1-(6-methylpyridin-3-yl)-3-(trifluoromethyl)-1H-pyrrol-2-yl]methoxy}phenyl)propanoic acid]	1240	870	289	–
CCc1ccc(-n2ccc(C(F)(F)F)c2COc2ccc(CCC(=O)O)c(F)c2F)cn1 [Compound 58, 3-(4-[[1-(6-ethylpyridin-3-yl)-3-(trifluoromethyl)-1H-pyrrol-2-yl]methoxy]-2,3-difluorophenyl)propanoic acid]	932	882	162	–
CC(Cc1cc(F)c(OCc2c(C(F)(F)F)ccn2-c2ccc(Cl)cc2)c(F)c1)C(=O)O (stereo not drawn) [Compound 59, 3-(4-[[1-(4-chlorophenyl)-3-(trifluoromethyl)-1H-pyrrol-2-yl]methoxy]-3,5-difluorophenyl)-2-methylpropanoic acid]	–	–	290	417
Cc1ccc(-n2ccc(C(F)(F)F)c2COc2c(F)cc(CC(C)C(=O)O)cc2F)cc1 (stereo not drawn) [Compound 60, 3-(3,5-difluoro-4-[[1-(4-methylphenyl)-3-(trifluoromethyl)-1H-pyrrol-2-yl]methoxy]phenyl)-2-methylpropanoic acid]	–	–	186	549
CCc1ccc(-n2ccc(C(F)(F)F)c2COc2c(F)cc(CC(C)C(=O)O)cc2F)cc1 (stereo not drawn) [Compound 61, 3-(4-[[1-(4-ethylphenyl)-3-(trifluoromethyl)-1H-pyrrol-2-yl]methoxy]-3,5-difluorophenyl)-2-methylpropanoic acid]	–	–	236	639

Now those with a lower EC50 [3], led by results:

EC50 [1] [nM]	EC50 [2] [nM]	EC50 [3] [nM]	EC50 [4] [nM]	Compound
61	222	67	–	COc1ccc(-n2ccc(C(F)(F)F)c2COc2c(F)cc(CCCO)cc2F)cc1 [Compound 31, 3-(3,5-Difluoro-4-{[1-(4-methoxyphenyl)-3-(trifluoromethyl)-1H-pyrrol-2-yl]methoxy}phenyl)propan-1-ol]
48	434	82	–	CCc1ccc(-n2ccc(C(F)(F)F)c2COc2c(F)cc(CCCO)cc2F)cc1 [Compound 33, 3-(4-[[1-(4-ethylphenyl)-3-(trifluoromethyl)-1H-pyrrol-2-yl]methoxy]-3,5-difluoro-phenyl)propan-1-ol]
201	507	63	–	OCCCc1cc(F)c(OCc2c(C(F)(F)F)ccn2-c2ccccc2)c(F)c1 [Compound 35, 3-(3,5-difluoro-4-[[1-phenyl-3-(trifluoromethyl)-1H-pyrrol-2-yl]methoxy]phenyl)propan-1-ol]
16	119	28	–	Cc1ccc(-n2ccc(C(F)(F)F)c2COc2c(F)cc(CCCO)cc2F)cc1 [Compound 37, 3-(3,5-difluoro-4-[[1-(4-methylphenyl)-3-(trifluoromethyl)-1H-pyrrol-2-yl]methoxy]phenyl)propan-1-ol]
293	810	84	–	Cc1ccc(-n2ccc(C(F)(F)F)c2COc2ccc(CCC(=O)O)c(F)c2F)cc1 [Compound 42, 3-(2,3-difluoro-4-[[1-(4-methylphenyl)-3-(trifluoromethyl)-1H-pyrrol-2-yl]methoxy]phenyl)propanoic acid]
359	558	63	–	Cc1ccc(-n2ccc(C(F)(F)F)c2COc2ccc(CCC(=O)O)c(C)c2C)cc1 [Compound 43, 3-(2,3-dimethyl-4-[[1-(4-methylphenyl)-3-(trifluoromethyl)-1H-pyrrol-2-yl]methoxy]phenyl)propanoic acid]
98	432	50	–	Cc1ccc(-n2ccc(C(F)(F)F)c2COc2ccc(CCCO)c(F)c2F)cc1 [Compound 44, 3-(2,3-difluoro-4-[[1-(4-methylphenyl)-3-(trifluoromethyl)-1H-pyrrol-2-yl]methoxy]phenyl)propan-1-ol]
99	621	43	–	OCCCc1cc(F)c(OCc2c(C(F)(F)F)ccn2-c2ccc(Cl)cc2)c(F)c1 [Compound 46, 3-(4-{[1-(4-Chlorophenyl)-3-(trifluoromethyl)-1H-pyrrol-2-yl]methoxy}-3,5-difluorophenyl)propan-1-ol]
241	375	66	–	Cc1ccc(-n2ccc(C(F)(F)F)c2COc2ccc(CCCO)c(F)c2F)cn1 [Compound 47, 3-(2,3-difluoro-4-[[1-(6-methylpyridin-3-yl)-3-(trifluoromethyl)-1H-pyrrol-2-yl]methoxy]phenyl)propan-1-ol trifluoroacetic acid]
98	98	30	–	Cc1ccc(-n2ccc(C(F)(F)F)c2COc2c(F)cc(CCCO)cc2F)cn1 [Compound 48, 3-(3,5-difluoro-4-((1-(6-methylpyridin-3-yl)-3-(trifluoromethyl)-1H-pyrrol-2-yl)methoxy)phenyl)propan-1-ol trifluoroacetic acid]
